Measurements taken from patent publication US12048711B2, “Composition and use thereof in the manufacture of medicament for treating cancer” (priority 2020, dated 2024).

Legend:
lung cancer A549 cells [1] = assay: A549 xenograft tumor treatment trial in nude mice; type: in vivo, Balbc nude mice; settings: for Average tumor volume: in mm³ (unit assumed)
Procedure: After growing to the logarithmic phase, A549 cells were collected and resuspended in serum-free DMEM medium to 5×10^7 cells per ml. Each mouse was inoculated with 100 μl of 5×10^6 cells, and the tumor size was measured 19 days later. Mice were grouped according to the tumor size, and the average tumor size in each group was the same. Mice were administered after grouping. […] The dosage of Gefitinib was 100 mg per kilogram according to the reported dose for the treatment of A549 xenografts in previous studies. The two drugs were administered by gavage, consistent with the current oral mode in clinical use. The dosing cycle was once every two days. The tumor size was measured every two days. After 40 days of administration, the test was ended, and the tumor was removed and weighed.

lung cancer A549 cells [2] = assay: Trypan blue staining of A549 cells treated with Gefitinib in sugar-free and sugar-containing medium; type: cell-based; settings: 20 μM Gefitinib, 48 hours
Procedure: […]. A549 cells were grown to 80% density, passed, resuspended in a normal medium (25 mM glucose) to a concentration of 4×10^5 cells per ml, and plated in a 24-well plate with 1 ml per well. After 24 hours, the medium was changed to sugar-free medium (0 mM glucose) and normal medium, respectively, and added with Gefitinib for treating the cell. After 48 hours, the medium was discarded, and 1 ml of 1×PBS was added to wash once, and 1 ml of 1×Trypan Blue was added to each well for staining for 10 minutes. Then, the trypan blue staining solution was aspirated, and the plate was washed three times by adding 1 ml of 1×PBS, and photographed under a light microscope. […] […]. […] According to the background section, cancer cells mainly rely on the SGLT family of proteins to absorb sugar. Therefore, the present disclosure relates use of a composition comprising dual inhibitor Sotagliflozin of SGLT1 and SGLT2, the two most important members of the SGLT family highly expressed in cancer cells, and a tyrosine kinase inhibitor in the manufacture of a medicament for treating cancer.
. Based on the previous findings illustrated in FIG. 1, Sotagliflozin was purchased from Selleck Chemicals for growth inhibition test of cancer cell in vitro. […] Therefore, the concentration of Sotagliflozin used in the subsequent compositions of this experiment were lower than 80 μM to avoid affecting normal cells.

[3] = tested on: liver cancer HepG2 cells, colorectal cancer LoVo, HT29, DLD1, SW480, and HCT116 cells; assay: Growth inhibition by Lenvatinib alone and with Sotagliflozin in a variety of cell lines; type: cell-based; settings: addition of Sotagliflozin at a safe dose; FIG. 5
From the text: Therefore, the effect of the combination in the safe concentration range of Sotagliflozin is better than the effect of each single agent. It is worth mentioning that the ability of Sotagliflozin in the combination to enhance the efficacy of VEGFR-targeting TKI drugs is not limited to a single drug of Apatinib.

[4] = tested on: Lung cancer cell line A549; assay: IC50 determination of EGFR inhibitor + Sotagliflozin combination on A549; type: cell-based; settings: Homo sapiens, single agent, cell survival rate after 1 h incubation, read-out: IC50 value on A549 cells
Procedure: After growing to 80% density, the cells were trypsinized, passaged and plated in a 96-well plate with 5000 cells per well. After 24 hours, the medium was replaced with a medium containing the corresponding concentration of drug. After 48 hours, the absorbance at each concentration was detected by the MTT method.

[5] = tested on: normal human umbilical cord epithelial cells; assay: Determination of the safe concentration of Sotagliflozin on normal cells; type: cell-based
Procedure: The killing effect of Gefitinib on lung cancer A549 cells cultured in sugar-free medium and sugar-containing medium 48 hours after treating A549 cells with 20 μM Gefitinib, trypan blue staining was used to distinguish live cells from dead cells which were stained blue by trypan blue. Based on the previous findings illustrated in FIG. 1, Sotagliflozin was purchased from Selleck Chemicals for growth inhibition test of cancer cell in vitro. […] Therefore, the concentration of Sotagliflozin used in the subsequent compositions of this experiment were lower than 80 μM to avoid affecting normal cells.

[6] = tested on: Liver cancer cell line HepG2; assay: IC50 determination of Apatinib+Sotagliflozin combination on HepG2; type: cell-based; settings: Homo sapiens, single agent, cell survival rate after 2 h incubation, read-out: IC50 value on HepG2 cells
From the text: After obtaining the effectiveness of […] in Example 1, the present disclosure further validated another VEGFR-targeting TKI drug, Apatinib. According to the tissue distribution characteristics of VEGFR and SGLT1/2, the targets of Apatinib and Sotagliflozin, the followings cells were selected for experimental verification: liver cancer cell line HepG2; colorectal cancer cell line LoVo, HT29, SW620, SW480; cervical cancer HeLa; ovarian cancer SKOV3; gastric cancer NGC27; cholangiocarcinoma RBE; esophageal cancer KYSE3. After growing to 80% density, the cells were trypsinized, passaged and plated in a 96-well plate with 5000 cells per well. […] After 48 hours, the absorbance at each concentration was detected by the MTT method. […]
Apatinib test group (FIG. 4-b-1): cells were treated by adding Apatinib alone at 6 different concentrations, 0 μM, 5 μM, 10 μM, 20 μM, 30 μM and 40 μM, respectively, to the culture medium, and cell survival rate was measured after 2 h incubation.
Sotagliflozin test group (FIG. 4-b-2): cells were treated by adding Sotagliflozin alone at 7 different concentrations, 0 μM, 20 μM, 30 μM, 40 μM, 60 μM, 80 μM and 100 μM respectively, to the culture medium, and cell survival rate was measured after 2 h incubation. […]

[7] = tested on: liver cancer cell line HepG2; colorectal cancer cell line LoVo, HT29, SW620, SW480; assay: MTT cell growth inhibition, Apatinib alone and with Sotagliflozin; type: cell-based; settings: Apatinib alone 5-30 μM, 48 hours, FIG. 4-a-1 to 4-a-5
From the text: After obtaining the effectiveness of […] in Example 1, the present disclosure further validated another VEGFR-targeting TKI drug, Apatinib. According to the tissue distribution characteristics of VEGFR and SGLT1/2, the targets of Apatinib and Sotagliflozin, the followings cells were selected for experimental verification: liver cancer cell line HepG2; colorectal cancer cell line LoVo, HT29, SW620, SW480; cervical cancer HeLa; ovarian cancer SKOV3; gastric cancer NGC27; cholangiocarcinoma RBE; esophageal cancer KYSE3. After growing to 80% density, the cells were trypsinized, passaged and plated in a 96-well plate with 5000 cells per well. After 24 hours, the medium was replaced with a medium containing the corresponding concentration of Apatinib, Sotagliflozin, or the combination of Apatinib and Sotagliflozin. After 48 hours, the absorbance at each concentration was detected by the MTT method. The experiment included the following groups: Control group: cells were cultured in normal culture medium without drug added. […] The cell growth inhibition rate is calculated by dividing the absorbance value at each concentration by the absorbance value of the control group. […] In the figure, the concentration of Apatinib is taken as the abscissa and the cell growth inhibition rate is taken as the ordinate.

[8] = A549 tumor-bearing mice, gavage once every two days, 40 days, Sotagliflozin 30 mg/kg, Gefitinib 100 mg/kg

Question: Which results are given for COc1cc2ncnc(Nc3ccc(F)c(Cl)c3)c2cc1OCCCN1CCOCC1 [Gefitinib]?
Answer: Tumor volume ratio of each group to the control group (lung cancer A549 cells [1]; mouse, in vivo): 0.4881; effectiveness evaluation (lung cancer A549 cells [1]; mouse, in vivo): ineffective; Average tumor volume (lung cancer A549 cells [1]; mouse, in vivo): 504.8; trypan blue staining (dead cells stained blue) (lung cancer A549 cells [2]; normal medium (25 mM glucose)): almost no blue coloration; trypan blue staining (dead cells stained blue) (lung cancer A549 cells [2]; sugar-free medium (0 mM glucose)): almost all colored blue, indicating dead cells

Question: COc1cc2nccc(Oc3ccc(NC(=O)NC4CC4)c(Cl)c3)c2cc1C(N)=O [Lenvatinib] was tested. Which “effect of adding Sotagliflozin on inhibitory effect of Lenvatinib” value [3] did it give?
Answer: enhanced the inhibitory effect

Question: Which results are given for CCOc1ccc(Cc2cc([C@@H]3O[C@H](SC)[C@@H](O)[C@H](O)[C@H]3O)ccc2Cl)cc1 [Sotagliflozin]?
Answer: IC50 [4]: 73 µM; inhibition of tumor growth (in words) (lung cancer A549 cells [1]; A549 tumor-bearing mice, FIG. 7-a to 7-c): can inhibit tumor growth; Tumor growth inhibition rate (lung cancer A549 cells [1]; [8]): 58.4%; Tumor volume ratio of each group to the control group (lung cancer A549 cells [1]; [8]): 0.416; Average tumor volume (lung cancer A549 cells [1]; [8]): 430.3; effectiveness evaluation (lung cancer A549 cells [1]; effective if tumor growth inhibition rate greater than 60% and p value less than 0.05): ineffective; concentration mainly exhibiting cell growth inhibition effect [5]: lower than 80 μM; concentration producing great cytotoxicity [5]: higher than 80 μM; IC50 [6]: 116 µM

Question: With N#CC1(c2ccc(NC(=O)c3cccnc3NCc3ccncc3)cc2)CCCC1 [Apatinib] as the compound, how does the “inhibitory effect on tumor cells (cell growth inhibition rate)” value [7] read?
Answer: limited

Question: And the IC50 [6]?
Answer: 46 µM
